# In patent publication US20220396569A1 (Carmot Therapeutics, Inc., priority 2021, published 2022):
# Molecular target: T1, human GLP-1 receptor (Homo sapiens, UniProt P43220)
# T1 construct: expressed in transfected cells
# Experiment: GLP-1R cAMP Assay (HitHunter cAMP accumulation)
# Assay type: cell-based
# Settings: cAMP accumulation, CHO cells stably overexpressing human GLP-1 receptor, 30 min treatment; read-out: EC50
# In short: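 CHO cells stably expressing human GLP-1R, 10,000 cells/well in HBSS with 10 mM HEPES and 625 μM IBMX, were mixed with anti-cAMP antibody reagent. Compound was applied as a 20-point dose response in triplicate for 30 min. After lysis and overnight detection, luminescence was read and dose-response curves analysed.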
# T1 sequence (P43220 24-463): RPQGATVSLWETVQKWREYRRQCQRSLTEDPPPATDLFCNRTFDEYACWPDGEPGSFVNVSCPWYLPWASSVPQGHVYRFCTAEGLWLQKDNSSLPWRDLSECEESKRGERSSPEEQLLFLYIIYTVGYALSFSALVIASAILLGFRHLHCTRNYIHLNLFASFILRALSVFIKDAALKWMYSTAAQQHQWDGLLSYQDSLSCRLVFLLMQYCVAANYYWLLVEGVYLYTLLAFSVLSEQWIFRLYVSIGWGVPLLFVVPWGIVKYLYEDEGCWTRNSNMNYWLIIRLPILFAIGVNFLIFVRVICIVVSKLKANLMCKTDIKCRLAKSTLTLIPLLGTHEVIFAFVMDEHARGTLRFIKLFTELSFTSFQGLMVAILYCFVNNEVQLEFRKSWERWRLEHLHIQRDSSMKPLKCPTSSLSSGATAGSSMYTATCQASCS
row,Compound,EC50
1,"N#CCC1(Cn2c(Cc3ccc(Oc4ccnc(COc5ccc(C#N)cc5F)n4)cc3F)nc3ccc(C(=O)O)cc32)CC1 [Compound 468, 2-{[4-({2-[(4-cyano-2-fluorophenoxy)methyl]pyrimidin-4-yl}oxy)-2-fluorophenyl]methyl}-1-{[1-(cyanomethyl)cyclopropyl]methyl}-1H-1,3-benzodiazole-6-carboxylic acid]",< 50 nM
2,"N#CCC1(Cn2c(Cc3ccc(Oc4cccc(COc5ccc(C#N)cc5F)n4)cc3F)nc3c(F)cc(C(=O)O)cc32)CC1 [Compound 469, 2-{[4-({6-[(4-cyano-2-fluorophenoxy)methyl]pyridin-2-yl}oxy)-2-fluorophenyl]methyl}-1-{[1-(cyanomethyl)cyclopropyl]methyl}-4-fluoro-1H-1,3-benzodiazole-6-carboxylic acid]",< 50 nM
3,"N#Cc1ccc(OCc2nccc(Oc3cc(F)c(Cc4nc5c(F)cc(C(=O)O)cc5n4C[C@@H]4CCO4)cc3F)n2)c(F)c1 [Compound 470, 2-{[4-({2-[(4-cyano-2-fluorophenoxy)methyl]pyrimidin-4-yl}oxy)-2,5-difluorophenyl]methyl}-4-fluoro-1-{[(2S)-oxetan-2-yl]methyl}-1H-1,3-bcnzodiazole-6-carboxylic acid]",< 50 nM
4,"N#Cc1ccc(OCc2ccc(F)c(C3CCN(Cc4nc5ccc(C(=O)O)cc5n4C[C@@H]4CCO4)C3)n2)c(F)c1 (stereo partly drawn) [Compound 520, 2-[(3-{6-[(4-cyano-2-fluorophenoxy)methyl]-3-fluoropyridin-2-yl}pyrrolidin-1-yl)methyl]-1-{[(2S)-oxetan-2-yl]methyl}-1H-1,3-benzodiazole-6-carboxylic acid]",< 50 nM
5,"N#Cc1ccc(OCc2ccc(F)c(C3CCN(Cc4nc5c(F)cc(C(=O)O)cc5n4C[C@@H]4CCO4)C3)n2)c(F)c1 (stereo partly drawn) [Compound 521, 2-[(3-{6-[(4-cyano-2-fluorophenoxy)methyl]-3-fluoropyridin-2-yl}pyrrolidin-1-yl)methyl]-4-fluoro-1-{[(2S)-oxetan-2-yl]methyl}-1H-1,3-benzodiazole-6-carboxylic acid]",< 50 nM
6,"N#Cc1ccc(OCc2nc(C34CC3CN(Cc3nc5c(F)cc(C(=O)O)cc5n3C[C@@H]3CCO3)C4)ccc2F)c(F)c1 (stereo partly drawn) [Compound 523, 2-[(1-{6-[(4-cyano-2-fluorophenoxy)methyl]-5-fluoropyridin-2-yl}-3-azabicyclo[3.1.0]hexan-3-yl)methyl]-4-fluoro-1-{[(2S)-oxetan-2-yl]methyl}-1H-1,3-benzodiazole-6-carboxylic acid]",< 50 nM
7,"N#Cc1ccc(OCc2nc(C34CC3CN(Cc3nc5ccc(C(=O)O)cc5n3C[C@@H]3CCO3)C4)ccc2F)c(Cl)c1 (stereo partly drawn) [Compound 524, 2-[(1-{6-[(2-chloro-4-cyanophenoxy)methyl]-5-fluoropyridin-2-yl}-3-azabicyclo[3.1.0]hexan-3-yl)methyl]-1-{[(2S)-oxetan-2-yl]methyl}-1H-1,3-benzodiazole-6-carboxylic acid]",< 50 nM
8,"N#Cc1ccc(OCc2nc(C34CC3CN(Cc3nc5c(F)cc(C(=O)O)cc5n3C[C@@H]3CCO3)C4)ccc2F)c(Cl)c1 (stereo partly drawn) [Compound 525, 2-[(1-{6-[(2-chloro-4-cyanophenoxy)methyl]-5-fluoropyridin-2-yl}-3-azabicyclo[3.1.0]hexan-3-yl)methyl]-4-fluoro-1-{[(2S)-oxetan-2-yl]methyl}-1H-1,3-benzodiazole-6-carboxylic acid]",< 50 nM
9,N#Cc1ccc(OCc2nc(N3CC[C@H](Cc4nc5c(F)cc(C(=O)O)cc5n4C[C@@H]4CCO4)C3)ccc2F)c(F)c1 [Compound 529],< 50 nM
10,N#Cc1ccc(OCc2nc(N3CC[C@H](Cc4nc5ccc(C(=O)O)cc5n4C[C@@H]4CCO4)C3)ccc2F)c(F)c1 [Compound 530],< 50 nM
11,"N#Cc1ccc(OCc2nc([C@@]34C[C@@H]3CN(Cc3nc5c(F)cc(C(=O)O)cc5n3C[C@@H]3CCO3)C4)ccc2F)c(F)c1 [Compound 531, 2-{[(1S,5S)-1-{6-[(4-cyano-2-fluorophenoxy)methyl]-5-fluoropyridin-2-yl}-3-azabicyclo[3.1.0]hexan-3-yl]methyl}-4-fluoro-1-{[(2S)-oxetan-2-yl]methyl}-1H-1,3-benzodiazole-6-carboxylic acid]",< 50 nM
12,"N#Cc1ccc(OCc2nc([C@]34C[C@H]3CN(Cc3nc5c(F)cc(C(=O)O)cc5n3C[C@@H]3CCO3)C4)ccc2F)c(F)c1 [Compound 532, 2-{[(lR,5R)-1-{6-[(4-cyano-2-fluorophenoxy)methyl]-5-fluoropyridin-2-yl}-3-azabicyclo[3.1.0]hexan-3-yl]methyl}-4-fluoro-1-{[(2S)-oxetan-2-yl]methyl}-1H-1,3-benzodiazole-6-carboxylic acid]",< 50 nM
13,"N#Cc1ccc(OCc2nc(N3CC[C@@H](Cc4nc5ccc(C(=O)O)cc5n4C[C@@H]4CCO4)C3)ccc2F)c(F)c1 [Compound 533, 2-(((S)-1-(6-((4-Cyano-2-fluorophenoxy)methyl)-5-fluoropyridin-2-yl)pyrrolidin-3-yl)methyl)-1-(((S)-oxetan-2-yl)methyl)-1H-benzo[d]imidazole-6-carboxylic acid]",< 50 nM
14,N#Cc1ccc(OCc2nc(N3CC[C@@H](Cc4nc5c(F)cc(C(=O)O)cc5n4C[C@@H]4CCO4)C3)ccc2F)c(F)c1 [Compound 534],< 50 nM
15,"N#Cc1ccc(OCc2nc(N3CCN(Cc4nc5ccc(C(=O)O)cc5n4C[C@@H]4CCO4)C3=O)ccc2F)c(F)c1 [Compound 535, (S)-2-((3-(6-((4-Cyano-2-fluorophenoxy)methyl)-5-fluoropyridin-2-yl)-2-oxoimidazolidin-1-yl)methyl)-1-(oxetan-2-ylmethyl)-1H-benzo[d]imidazole-6-carboxylic acid]",> 500 nM
16,"O=C(O)c1ccc2nc(Cc3cc(F)c(Oc4ccnc(COc5ccc(Cl)cc5F)c4)cc3F)n(C[C@@H]3CCO3)c2c1 [Compound 536, (S)-2-(4-((2-((4-Chloro-2-fluorophenoxy)methyl)pyridin-4-yl)oxy)-2,5-difluorobenzyl)-1-(oxetan-2-ylmethyl)-1H-benzo[d]imidazole-6-carboxylic acid]",< 50 nM
17,"N#Cc1ccc(OCc2cc(Oc3ccc(Cc4nc5c(F)cc(C(=O)O)cc5n4C[C@@H]4CCO4)c(F)c3)ccn2)c(F)c1 [Compound 537, 2-{[4-({2-[(4-cyano-2-fluorophenoxy)methyl]pyridin-4-yl}oxy)-2-fluorophenyl]methyl}-4-fluoro-1-{[(2S)-oxetan-2-yl]methyl}-1H-1,3-benzodiazole-6-carboxylic acid]",< 50 nM
18,"O=C(O)c1cc(F)c2nc(Cc3cc(F)c(Oc4ccnc(COc5ccc(Cl)cc5F)c4)cc3F)n(C[C@@H]3CCO3)c2c1 [Compound 538, 2-{[4-({2-[(4-chloro-2-fluorophenoxy)methyl]pyridin-4-yl}oxy)-2,5-difluorophenyl]methyl}-4-fluoro-1-{[(2S)-oxetan-2-yl]methyl}-1H-1,3-benzodiazole-6-carboxylic acid]",< 50 nM
19,"N#Cc1ccc(OCc2nccc(Oc3ccc(Cc4nc5c(F)cc(C(=O)O)cc5n4C[C@@H]4CCO4)cc3F)n2)c(F)c1 [Compound 539, (S)-2-(4-((2-((4-cyano-2-fluorophenoxy)methyl)pyrimidin-4-yl)oxy)-3-fluorobenzyl)-4-fluoro-1-(oxetan-2-ylmethyl)-1H-benzo[d]imidazole-6-carboxylic acid]",< 50 nM
20,"Cc1cc(Oc2ccnc(COc3ccc(C#N)cc3F)n2)ccc1Cc1nc2c(F)cc(C(=O)O)cc2n1C[C@@H]1CCO1 [Compound 540, (S)-2-(4-((2-((4-Cyano-2-fluorophenoxy)methyl)pyrimidin-4-yl)oxy)-2-methylbenzyl)-4-fluoro-1-(oxetan-2-ylmethyl)-1H-benzo[d]imidazole-6-carboxylic acid]",< 50 nM
21,"Cc1cc(Oc2ccnc(COc3ccc(C#N)cc3F)n2)ccc1Cc1nc2ccc(C(=O)O)cc2n1C[C@@H]1CCO1 [Compound 541, 2-{[4-({2-[(4-cyano-2-fluorophenoxy)methyl]pyrimidin-4-yl}oxy)-2-methylphenyl]methyl}-1-{[(2S)-oxetan-2-yl]methyl}-1H-1,3-benzodiazole-6-carboxylic acid]",< 50 nM
22,"N#Cc1ccc(OCc2cc(Oc3cnc(Cc4nc5c(F)cc(C(=O)O)cc5n4C[C@@H]4CCO4)c(F)c3)ccn2)c(F)c1 [Compound 542, (S)-2-((5-((2-((4-Cyano-2-fluorophenoxy)methyl)pyridin-4-yl)oxy)-3-fluoropyridin-2-yl)methyl)-4-fluoro-1-(oxetan-2-ylmethyl)-1H-benzo[d]imidazole-6-carboxylic acid]",< 50 nM
23,"N#Cc1ccc(OCc2cc(Oc3ccc(Cc4nc5c(F)cc(C(=O)O)cc5n4C[C@@H]4CCO4)c(C#N)c3)ccn2)c(F)c1 [Compound 543, 2-{[2-cyano-4-({2-[(4-cyano-2-fluorophenoxy)methyl]pyridin-4-yl}oxy)phenyl]methyl}-4-fluoro-1-{[(2S)-oxetan-2-yl]methyl}-1H-1,3-benzodiazole-6-carboxylic acid]",< 50 nM
24,"Cc1ccc(OCc2cc(Oc3ccc(Cc4nc5ccc(C(=O)O)cc5n4C[C@@H]4CCO4)cn3)ccn2)c(F)c1 [Compound 544, (S)-2-((6-((2-((2-Fluoro-4-methylphenoxy)methyl)pyridin-4-yl)oxy)pyridin-3-yl)methyl)-1-(oxetan-2-ylmethyl)-1H-benzo[d]imidazole-6-carboxylic acid]",< 50 nM
25,"C[C@H]1[C@@H](Oc2ccnc(COc3ccc(C#N)cc3F)n2)CN1Cc1nc2ccc(C(=O)O)cc2n1C[C@@H]1CCO1 [Compound 545, 2-{[(2S,3S)-3-({2-[(4-cyano-2-fluorophenoxy)methyl]pyrimidin-4-yl}oxy)-2-methylazetidin-1-yl]methyl}-1-{[(2S)-oxetan-2-yl]methyl}-1H-1,3-benzodiazole-6-carboxylic acid]",< 50 nM
26,"C[C@H]1[C@@H](Oc2ccnc(COc3ccc(C#N)cc3F)n2)CN1Cc1nc2c(F)cc(C(=O)O)cc2n1C[C@@H]1CCO1 [Compound 546, 2-{[(2S,3S)-3-({2-[(4-cyano-2-fluorophenoxy)methyl]pyrimidin-4-yl}oxy)-2-methylazetidin-1-yl]methyl}-4-fluoro-1-{[(2S)-oxetan-2-yl]methyl}-1H-1,3-benzodiazole-6-carboxylic acid]",< 50 nM
